# Test results from ChEMBL document CHEMBL3611972, “Leishmanicidal, antiproteolytic, and mutagenic evaluation of alkyltriazoles and alkylphosphocholines” (Eur J Med Chem, 2015).
# Assays:
# [1] = Mutagenicity in CHOK1 cells assessed as induction of chromosomal DNA mutation by measuring micronuclei level at 6.41 to 25.63 incubated for 3 hrs by cytokinesis-block micronucleus assay; format: toxicity, cell-based, Cricetulus griseus; settings: chinese hamster, cho-k1, 3 h
# [2] = test system: Salmonella typhimurium; experiment: Mutagenicity in Salmonella typhimurium TA98 assessed as mutagenicity index at 150.98 uM/plate incubated for 90 mins at 37 degC in absence of liver S9 fractions by Ames test relative to untreated control; format: toxicity, organism-based; settings: salmonella enterica subsp. enterica serovar typhimurium, 1.5 h
# [3] = test system: Salmonella typhimurium; experiment: Mutagenicity in Salmonella typhimurium TA98 assessed as mutagenicity index at 435.85 uM/plate incubated for 90 mins at 37 degC in absence of liver S9 fractions by Ames test relative to untreated control; format: toxicity, organism-based; settings: salmonella enterica subsp. enterica serovar typhimurium, 1.5 h
# [4] = test system: Salmonella typhimurium; experiment: Mutagenicity in Salmonella typhimurium TA98 assessed as mutagenicity index at 150.98 uM/plate incubated for 90 mins at 37 degC in presence of liver S9 fractions by Ames test relative to untreated control; format: toxicity, organism-based; settings: salmonella enterica subsp. enterica serovar typhimurium, s9, 1.5 h
# [5] = test system: Salmonella typhimurium; experiment: Mutagenicity in Salmonella typhimurium TA98 assessed as mutagenicity index at 296.15 uM/plate incubated for 90 mins at 37 degC in presence of liver S9 fractions by Ames test relative to untreated control; format: toxicity, organism-based; settings: salmonella enterica subsp. enterica serovar typhimurium, s9, 1.5 h
# [6] = test system: Salmonella typhimurium; experiment: Mutagenicity in Salmonella typhimurium TA98 assessed as mutagenicity index at 435.85 uM/plate incubated for 90 mins at 37 degC in presence of liver S9 fractions by Ames test relative to untreated control; format: toxicity, organism-based; settings: salmonella enterica subsp. enterica serovar typhimurium, s9, 1.5 h
# [7] = test system: Salmonella typhimurium; experiment: Mutagenicity in Salmonella typhimurium TA100 assessed as mutagenicity index at 570.37 uM/plate incubated for 90 mins at 37 degC in absence of liver S9 fractions by Ames test relative to untreated control; format: toxicity, organism-based; settings: salmonella enterica subsp. enterica serovar typhimurium, 1.5 h
# [8] = test system: Salmonella typhimurium; experiment: Mutagenicity in Salmonella typhimurium TA100 assessed as mutagenicity index at 700.00 uM/plate incubated for 90 mins at 37 degC in absence of liver S9 fractions by Ames test relative to untreated control; format: toxicity, organism-based; settings: salmonella enterica subsp. enterica serovar typhimurium, 1.5 h
# [9] = test system: Salmonella typhimurium; experiment: Mutagenicity in Salmonella typhimurium TA100 assessed as mutagenicity index at 150.98 uM/plate incubated for 90 mins at 37 degC in presence of liver S9 fractions by Ames test relative to untreated control; format: toxicity, organism-based; settings: salmonella enterica subsp. enterica serovar typhimurium, s9, 1.5 h
# [10] = test system: Salmonella typhimurium; experiment: Mutagenicity in Salmonella typhimurium TA100 assessed as mutagenicity index at 570.37 uM/plate incubated for 90 mins at 37 degC in presence of liver S9 fractions by Ames test relative to untreated control; format: toxicity, organism-based; settings: salmonella enterica subsp. enterica serovar typhimurium, s9, 1.5 h
# [11] = test system: Salmonella typhimurium; experiment: Mutagenicity in Salmonella typhimurium TA97a assessed as mutagenicity index at 150.98 uM/plate incubated for 90 mins at 37 degC in absence of liver S9 fractions by Ames test relative to untreated control; format: toxicity, organism-based; settings: salmonella enterica subsp. enterica serovar typhimurium, 1.5 h
# [12] = test system: Salmonella typhimurium; experiment: Mutagenicity in Salmonella typhimurium TA97a assessed as mutagenicity index at 570.37 uM/plate incubated for 90 mins at 37 degC in absence of liver S9 fractions by Ames test relative to untreated control; format: toxicity, organism-based; settings: salmonella enterica subsp. enterica serovar typhimurium, 1.5 h
# [13] = test system: Salmonella typhimurium; experiment: Mutagenicity in Salmonella typhimurium TA97a assessed as mutagenicity index at 296.15 uM/plate incubated for 90 mins at 37 degC in presence of liver S9 fractions by Ames test relative to untreated control; format: toxicity, organism-based; settings: salmonella enterica subsp. enterica serovar typhimurium, s9, 1.5 h
# [14] = test system: Salmonella typhimurium; experiment: Mutagenicity in Salmonella typhimurium TA102 assessed as mutagenicity index at 150.98 uM/plate incubated for 90 mins at 37 degC in absence of liver S9 fractions by Ames test relative to untreated control; format: toxicity, organism-based; settings: salmonella enterica subsp. enterica serovar typhimurium, 1.5 h
# [15] = test system: Salmonella typhimurium; experiment: Mutagenicity in Salmonella typhimurium TA102 assessed as mutagenicity index at 435.85 uM/plate incubated for 90 mins at 37 degC in absence of liver S9 fractions by Ames test relative to untreated control; format: toxicity, organism-based; settings: salmonella enterica subsp. enterica serovar typhimurium, 1.5 h
# [16] = test system: Salmonella typhimurium; experiment: Mutagenicity in Salmonella typhimurium TA102 assessed as mutagenicity index at 296.15 uM/plate incubated for 90 mins at 37 degC in presence of liver S9 fractions by Ames test relative to untreated control; format: toxicity, organism-based; settings: salmonella enterica subsp. enterica serovar typhimurium, s9, 1.5 h
# [17] = test system: Salmonella typhimurium; experiment: Mutagenicity in Salmonella typhimurium TA102 assessed as mutagenicity index at 435.85 uM/plate incubated for 90 mins at 37 degC in presence of liver S9 fractions by Ames test relative to untreated control; format: toxicity, organism-based; settings: salmonella enterica subsp. enterica serovar typhimurium, s9, 1.5 h
# [18] = test system: Salmonella typhimurium; experiment: Mutagenicity in Salmonella typhimurium TA102 assessed as mutagenicity index at 700.00 uM/plate incubated for 90 mins at 37 degC in presence of liver S9 fractions by Ames test relative to untreated control; format: toxicity, organism-based; settings: salmonella enterica subsp. enterica serovar typhimurium, s9, 1.5 h
# [19] = test system: Salmonella typhimurium; experiment: Mutagenicity in Salmonella typhimurium TA98 assessed as mutagenicity index at 905.66 uM/plate incubated for 90 mins at 37 degC in absence of liver S9 fractions by Ames test relative to control; format: toxicity, organism-based; settings: salmonella enterica subsp. enterica serovar typhimurium, 1.5 h
# [20] = test system: Salmonella typhimurium; experiment: Mutagenicity in Salmonella typhimurium TA98 assessed as mutagenicity index at 313.73 uM/plate incubated for 90 mins at 37 degC in presence of liver S9 fractions by Ames test relative to control; format: toxicity, organism-based; settings: salmonella enterica subsp. enterica serovar typhimurium, s9, 1.5 h
# [21] = test system: Salmonella typhimurium; experiment: Mutagenicity in Salmonella typhimurium TA98 assessed as mutagenicity index at 616.38 uM/plate incubated for 90 mins at 37 degC in presence of liver S9 fractions by Ames test relative to control; format: toxicity, organism-based; settings: salmonella enterica subsp. enterica serovar typhimurium, s9, 1.5 h
# [22] = test system: Salmonella typhimurium; experiment: Mutagenicity in Salmonella typhimurium TA100 assessed as mutagenicity index at 1454.55 uM/plate incubated for 90 mins at 37 degC in absence of liver S9 fractions by Ames test relative to control; format: toxicity, organism-based; settings: salmonella enterica subsp. enterica serovar typhimurium, 1.5 h
# [23] = test system: Salmonella typhimurium; experiment: Mutagenicity in Salmonella typhimurium TA97a assessed as mutagenicity index at 313.73 uM/plate incubated for 90 mins at 37 degC in absence of liver S9 fractions by Ames test relative to control; format: toxicity, organism-based; settings: salmonella enterica subsp. enterica serovar typhimurium, 1.5 h
# [24] = test system: Salmonella typhimurium; experiment: Mutagenicity in Salmonella typhimurium TA97a assessed as mutagenicity index at 1185.19 uM/plate incubated for 90 mins at 37 degC in absence of liver S9 fractions by Ames test relative to control; format: toxicity, organism-based; settings: salmonella enterica subsp. enterica serovar typhimurium, 1.5 h
# [25] = test system: Salmonella typhimurium; experiment: Mutagenicity in Salmonella typhimurium TA97a assessed as mutagenicity index at 616.38 uM/plate incubated for 90 mins at 37 degC in presence of liver S9 fractions by Ames test relative to control; format: toxicity, organism-based; settings: salmonella enterica subsp. enterica serovar typhimurium, s9, 1.5 h
# [26] = test system: Salmonella typhimurium; experiment: Mutagenicity in Salmonella typhimurium TA102 assessed as mutagenicity index at 616.38 uM/plate incubated for 90 mins at 37 degC in absence of liver S9 fractions by Ames test relative to control; format: toxicity, organism-based; settings: salmonella enterica subsp. enterica serovar typhimurium, 1.5 h
# [27] = test system: Salmonella typhimurium; experiment: Mutagenicity in Salmonella typhimurium TA102 assessed as mutagenicity index at 905.66 uM/plate incubated for 90 mins at 37 degC in absence of liver S9 fractions by Ames test relative to control; format: toxicity, organism-based; settings: salmonella enterica subsp. enterica serovar typhimurium, 1.5 h
# [28] = test system: Salmonella typhimurium; experiment: Mutagenicity in Salmonella typhimurium TA102 assessed as mutagenicity index at 1185.19 uM/plate incubated for 90 mins at 37 degC in absence of liver S9 fractions by Ames test relative to control; format: toxicity, organism-based; settings: salmonella enterica subsp. enterica serovar typhimurium, 1.5 h
# [29] = test system: Salmonella typhimurium; experiment: Mutagenicity in Salmonella typhimurium TA102 assessed as mutagenicity index at 1185.19 uM/plate incubated for 90 mins at 37 degC in presence of liver S9 fractions by Ames test relative to control; format: toxicity, organism-based; settings: salmonella enterica subsp. enterica serovar typhimurium, s9, 1.5 h
# [30] = test system: Salmonella typhimurium; experiment: Mutagenicity in Salmonella typhimurium TA102 assessed as mutagenicity index at 1454.55 uM/plate incubated for 90 mins at 37 degC in presence of liver S9 fractions by Ames test relative to control; format: toxicity, organism-based; settings: salmonella enterica subsp. enterica serovar typhimurium, s9, 1.5 h
# [31] = Mutagenicity in CHOK1 cells assessed as induction of chromosomal DNA mutation by measuring micronuclei level at 14.51 to 58.04 incubated for 3 hrs by cytokinesis-block micronucleus assay; format: toxicity, cell-based, Cricetulus griseus; settings: chinese hamster, cho-k1, 3 h
smiles,measurement,setting,value
CS(=O)(=O)OCCCCCCCCCCCCn1cc(CCCO)nn1,Activity,[1],Non-toxic
same,Activity_index,[2],1
same,Activity_index,[3],1.1
same,Activity_index,[4],1.1
same,Activity_index,[5],1.1
same,Activity_index,[6],1.1
same,Activity_index,[7],1.3
same,Activity_index,[8],1
same,Activity_index,[9],0.9
same,Activity_index,[10],0.8
same,Activity_index,[11],1.3
same,Activity_index,[12],0.9
same,Activity_index,[13],0.9
same,Activity_index,[14],1.1
same,Activity_index,[15],0.9
same,Activity_index,[16],1.3
same,Activity_index,[17],1.1
same,Activity_index,[18],1.4
CCOC(=O)c1cn(CCCCCCCCCOS(C)(=O)=O)nn1,Activity_index,[19],1.2
same,Activity_index,[20],1
same,Activity_index,[21],0.8
same,Activity_index,[22],1.2
same,Activity_index,[23],1.3
same,Activity_index,[24],1.3
same,Activity_index,[25],0.9
same,Activity_index,[26],1.1
same,Activity_index,[27],0.9
same,Activity_index,[28],1.2
same,Activity_index,[29],1.4
same,Activity_index,[30],1.2
same,Activity,[31],Non-toxic
